Reference: patent publication US20240158446A1, “CYCLIC COMPOUND HAVING SELECTIVE INHIBITORY ACTION ON KRAS OVER HRAS AND NRAS” (CHUGAI SEIYAKU KABUSHIKI KAISHA, priority 2021, published 2024)
*1 amine or outer side, *2 acyl side, *3 side chain or, on linkers, in order; H or OH if unused. Where a SMILES comes first, the peptide text is derived from it. Bridges are numbered along the chain shown (N, C = ends). [ ]: non-standard residue; d: D form. The star is where a group is joined. hPhe(3-Cl-4-CF3) = N[C@@H](CCc1ccc(C(F)(F)F)c(Cl)c1)C(=O)O; X45 = O=C([C@H](Cc1ccc(C(F)(F)F)cc1)N(CCCF)[*:1])[*:2]; X19 = CCCN([C@@H](CC1CCC(F)(F)CC1)C(=O)[*:2])[*:1]; NMeGly(cPent) = CN[C@H](C(=O)O)C1CCCC1; NMeD = CN[C@@H](CC(=O)O)C(=O)O; NMeL = CN[C@@H](CC(C)C)C(=O)O; Morpholide = C1CN(*)CCO1; NMeA = CN[C@@H](C)C(=O)O; Ac5c = NC1(C(=O)O)CCCC1; Aze = O=C(O)[C@@H]1CCN1; Sar = CNCC(=O)O

Legend:
[1] = target: GDP-bound HRAS wild-type protein (Homo sapiens, UniProt P01112); assay: Binding to HRAS by surface plasmon resonance (SPR), Single Cycle Kinetics; conditions: SPR, GDP-bound HRAS wild-type protein vs GDP-bound KRAS wild-type protein
Sequence of GDP-bound HRAS wild-type protein (P01112 whole entry): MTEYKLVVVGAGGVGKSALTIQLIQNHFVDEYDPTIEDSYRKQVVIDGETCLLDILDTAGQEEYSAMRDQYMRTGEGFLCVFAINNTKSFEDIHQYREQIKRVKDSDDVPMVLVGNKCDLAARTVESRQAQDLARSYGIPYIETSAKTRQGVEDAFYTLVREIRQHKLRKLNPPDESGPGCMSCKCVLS

[2] = target: GDP-bound KRAS wild-type protein (Homo sapiens, UniProt P01116); assay: Binding to KRAS by surface plasmon resonance (SPR), Single Cycle Kinetics; conditions: SPR Single Cycle Kinetics, GDP-bound KRAS wild-type protein, 1:1 binding model; read-out: KRAS KD
Sequence of GDP-bound KRAS wild-type protein (P01116 whole entry): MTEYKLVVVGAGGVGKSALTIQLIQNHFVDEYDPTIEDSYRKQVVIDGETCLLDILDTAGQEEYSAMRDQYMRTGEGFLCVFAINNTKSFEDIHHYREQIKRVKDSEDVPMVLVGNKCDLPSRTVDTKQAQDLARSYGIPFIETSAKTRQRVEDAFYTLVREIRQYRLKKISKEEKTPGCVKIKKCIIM

[3] = target: GDP-bound NRAS wild-type protein (Homo sapiens, UniProt P01111); assay: Binding to NRAS by surface plasmon resonance (SPR), Single Cycle Kinetics; conditions: SPR, GDP-bound NRAS wild-type protein vs GDP-bound KRAS wild-type protein
Sequence of GDP-bound NRAS wild-type protein (P01111 whole entry): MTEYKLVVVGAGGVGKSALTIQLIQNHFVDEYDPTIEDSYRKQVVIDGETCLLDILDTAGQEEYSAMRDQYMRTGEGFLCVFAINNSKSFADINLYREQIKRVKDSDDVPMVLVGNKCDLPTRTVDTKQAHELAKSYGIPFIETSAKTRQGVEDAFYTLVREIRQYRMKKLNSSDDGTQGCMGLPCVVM

Compound | HRAS/KRAS (ratio of KD value with respect to HRAS to KD value with respect to KRAS) [1] | Kd [2] [nM] | NRAS/KRAS (ratio of KD value with respect to NRAS to KD value with respect to KRAS) [3]
CC(C)C[C@H]1C(=O)N[C@@H](C2CCC2)C(=O)N(C)CC(=O)N(C)[C@H]2CCCCCN(C2=O)[C@@H](Cc2ccc(C(F)(F)F)cc2)C(=O)N(C)CC(=O)N[C@@H](CCc2cc(F)c(C(F)(F)F)c(F)c2)C(=O)N2CCC[C@H]2C(=O)NC2(CCCC2)C(=O)N(C)[C@@H](C2CCCC2)C(=O)N(C)[C@H](C(=O)N2CCOCC2)CC(=O)N1C [PP0522] | B (a compound having 3 or more and less than 10 is denoted as B) | 2.8 | B (a compound having 3 or more and less than 10 is denoted as B)
CCC(CC)[C@@H]1NC(=O)[C@H](CC(C)C)N(C)C(=O)C[C@@H](C(=O)N2CCOCC2)N(C)C(=O)[C@H](C2CCCC2)N(C)C(=O)C2(CCCC2)NC(=O)[C@@H]2CCCN2C(=O)[C@H](CCc2cc(F)c(C(F)(F)F)c(F)c2)NC(=O)CN(C)C(=O)[C@H](Cc2ccc(C(F)(F)F)cc2)N2CCCCC[C@@H](C2=O)N(C)C(=O)CN(C)C1=O [PP0523] | B (a compound having 3 or more and less than 10 is denoted as B) | 12 | A (a compound having 10 or more and less than 20 is denoted as A)
CC[C@H](C)[C@@H]1NC(=O)[C@H](CC(C)C)N(C)C(=O)C[C@@H](C(=O)N2CCOCC2)N(C)C(=O)[C@H](C2CCCC2)N(C)C(=O)C2(CCCC2)NC(=O)[C@@H]2CCCN2C(=O)[C@H](CCc2ccc(C(F)(F)F)c(Cl)c2)NC(=O)CN(C)C(=O)[C@H](Cc2ccc(C(F)(F)F)cc2)N(CCCF)C(=O)CN(C)C(=O)CN(C)C1=O [PP0524] ([NMeL]I[Sar][Sar][X45][Sar][hPhe(3-Cl-4-CF3)]P[Ac5c][NMeGly(cPent)][NMeD]-Morpholide; lactam N-11) | C (A compound having a KD ratio of 0.1 or more and less than 3 is denoted as C) | 0.11 | B (a compound having 3 or more and less than 10 is denoted as B)
CC[C@H](C)[C@@H]1NC(=O)[C@H](CC(C)C)N(C)C(=O)C[C@@H](C(=O)N2CCOCC2)N(C)C(=O)[C@H](C2CCCC2)N(C)C(=O)C2(CCCC2)NC(=O)[C@@H]2CCCN2C(=O)[C@H](CCc2ccc(C(F)(F)F)c(Cl)c2)NC(=O)CN(C)C(=O)[C@H](Cc2ccc(C(F)(F)F)cc2)N(CCCF)C(=O)[C@@H]2CCN2C(=O)[C@H](C)N(C)C1=O [PP0525] ([NMeL]I[NMeA][Aze][X45][Sar][hPhe(3-Cl-4-CF3)]P[Ac5c][NMeGly(cPent)][NMeD]-Morpholide; lactam N-11) | B (a compound having 3 or more and less than 10 is denoted as B) | 0.14 | C (A compound having a KD ratio of 0.1 or more and less than 3 is denoted as C)
CCCN1C(=O)CN(C)C(=O)CN(C)C(=O)[C@H]([C@@H](C)CC)NC(=O)[C@H](CC(C)C)N(C)C(=O)C[C@@H](C(=O)N2CCOCC2)N(C)C(=O)[C@H](C2CCCC2)N(C)C(=O)C2(CCCC2)NC(=O)[C@@H]2CCCN2C(=O)[C@H](CCc2ccc(C(F)(F)F)c(Cl)c2)NC(=O)CN(C)C(=O)[C@@H]1CC1CCC(F)(F)CC1 [PP0526] ([NMeL]I[Sar][Sar][X19][Sar][hPhe(3-Cl-4-CF3)]P[Ac5c][NMeGly(cPent)][NMeD]-Morpholide; lactam N-11) | C (A compound having a KD ratio of 0.1 or more and less than 3 is denoted as C) | 0.074 | B (a compound having 3 or more and less than 10 is denoted as B)
CCCN1C(=O)[C@@H]2CCN2C(=O)[C@H](C)N(C)C(=O)[C@H]([C@@H](C)CC)NC(=O)[C@H](CC(C)C)N(C)C(=O)C[C@@H](C(=O)N2CCOCC2)N(C)C(=O)[C@H](C2CCCC2)N(C)C(=O)C2(CCCC2)NC(=O)[C@@H]2CCCN2C(=O)[C@H](CCc2ccc(C(F)(F)F)c(Cl)c2)NC(=O)CN(C)C(=O)[C@@H]1CC1CCC(F)(F)CC1 [PP0527] ([NMeL]I[NMeA][Aze][X19][Sar][hPhe(3-Cl-4-CF3)]P[Ac5c][NMeGly(cPent)][NMeD]-Morpholide; lactam N-11) | C (A compound having a KD ratio of 0.1 or more and less than 3 is denoted as C) | 0.21 | C (A compound having a KD ratio of 0.1 or more and less than 3 is denoted as C)
CC[C@H](C)[C@@H]1NC(=O)[C@H](CC(C)C)N(C)C(=O)C[C@@H](C(=O)N2CCOCC2)N(C)C(=O)[C@H](C2CCCC2)N(C)C(=O)C2(CCCC2)NC(=O)[C@@H]2CCCN2C(=O)[C@H](CCc2ccc(C(F)(F)F)c(Cl)c2)NC(=O)CN(C)C(=O)[C@H](Cc2ccc(Cl)cc2)N2CC=CC[C@@H](C2=O)N(C)C(=O)CN(C)C1=O [PP0533] | C (A compound having a KD ratio of 0.1 or more and less than 3 is denoted as C) | 0.17 | C (A compound having a KD ratio of 0.1 or more and less than 3 is denoted as C)
CC[C@H](C)[C@@H]1NC(=O)[C@H](CC(C)C)N(C)C(=O)C[C@@H](C(=O)N2CCOCC2)N(C)C(=O)[C@H](C2CCCC2)N(C)C(=O)C2(CCCC2)NC(=O)[C@@H]2CCCN2C(=O)[C@H](CCc2ccc(C(F)(F)F)c(Cl)c2)NC(=O)CN(C)C(=O)[C@H](Cc2ccc(OC)cc2)N2CCCC[C@@H](C2=O)N(C)C(=O)CN(C)C1=O [PP0534] | B (a compound having 3 or more and less than 10 is denoted as B) | 0.16 | B (a compound having 3 or more and less than 10 is denoted as B)
CC[C@H](C)[C@@H]1NC(=O)[C@H](CC(C)C)N(C)C(=O)C[C@@H](C(=O)N2CCOCC2)N(C)C(=O)[C@H](C2CCCC2)N(C)C(=O)C2(CCCC2)NC(=O)[C@@H]2CCCN2C(=O)[C@H](CCc2ccc(C(F)(F)F)c(Cl)c2)NC(=O)CN(C)C(=O)[C@H](Cc2ccc(OC)cc2)N2CC=CC[C@@H](C2=O)N(C)C(=O)CN(C)C1=O [PP0535] | B (a compound having 3 or more and less than 10 is denoted as B) | 0.5 | C (A compound having a KD ratio of 0.1 or more and less than 3 is denoted as C)
CC[C@H](C)[C@@H]1NC(=O)[C@H](CC(C)C)N(C)C(=O)C[C@@H](C(=O)N2CCOCC2)N(C)C(=O)[C@H](C2CCCC2)N(C)C(=O)C2(CCCC2)NC(=O)[C@@H]2CCCN2C(=O)[C@H](CCc2ccc(C(F)(F)F)c(Cl)c2)NC(=O)CN(C)C(=O)[C@H](Cc2ccc(OC(F)(F)F)cc2)N2CCCC[C@@H](C2=O)N(C)C(=O)CN(C)C1=O [PP0536] | B (a compound having 3 or more and less than 10 is denoted as B) | 0.63 | B (a compound having 3 or more and less than 10 is denoted as B)
CC[C@H](C)[C@@H]1NC(=O)[C@H](CC(C)C)N(C)C(=O)C[C@@H](C(=O)N2CCOCC2)N(C)C(=O)[C@H](C2CCCC2)N(C)C(=O)C2(CCCC2)NC(=O)[C@@H]2CCCN2C(=O)[C@H](CCc2ccc(C(F)(F)F)c(Cl)c2)NC(=O)CN(C)C(=O)[C@H](Cc2ccc(OC(F)(F)F)cc2)N2CC=CC[C@@H](C2=O)N(C)C(=O)CN(C)C1=O [PP0537] | C (A compound having a KD ratio of 0.1 or more and less than 3 is denoted as C) | 5.8 | C (A compound having a KD ratio of 0.1 or more and less than 3 is denoted as C)
CC[C@H](C)[C@@H]1NC(=O)[C@H](CC(C)C)N(C)C(=O)C[C@@H](C(=O)N2CCOCC2)N(C)C(=O)[C@H](C2CCCC2)N(CC)C(=O)C2(CCCC2)NC(=O)[C@@H]2CCCN2C(=O)[C@H](CCc2cc(F)c(C(F)(F)F)c(F)c2)NC(=O)CN(C)C(=O)[C@H](Cc2ccc(C(F)(F)F)cc2)N2CCCC[C@@H](C2=O)N(C)C(=O)CN(C)C1=O [PP0538] | B (a compound having 3 or more and less than 10 is denoted as B) | 0.67 | B (a compound having 3 or more and less than 10 is denoted as B)
CC[C@H](C)[C@@H]1NC(=O)[C@H](CC(C)C)N(C)C(=O)C[C@@H](C(=O)N2CCOCC2)N(CC)C(=O)[C@H](C2CCCC2)N(C)C(=O)C2(CCCC2)NC(=O)[C@@H]2CCCN2C(=O)[C@H](CCc2cc(F)c(C(F)(F)F)c(F)c2)NC(=O)CN(C)C(=O)[C@H](Cc2ccc(C(F)(F)F)cc2)N2CCCC[C@@H](C2=O)N(C)C(=O)CN(C)C1=O [PP0539] | B (a compound having 3 or more and less than 10 is denoted as B) | 0.17 | B (a compound having 3 or more and less than 10 is denoted as B)
CC[C@H](C)[C@@H]1NC(=O)[C@H](CC(C)C)N(C)C(=O)C[C@@H](C(=O)N2CCOCC2)N(C)C(=O)[C@H](C2CCCC2)NC(=O)C2(CCCC2)NC(=O)[C@@H]2CCCN2C(=O)[C@H](CCc2cc(F)c(C(F)(F)F)c(F)c2)NC(=O)CN(C)C(=O)[C@H](Cc2ccc(C(F)(F)F)cc2)N2CCCC[C@@H](C2=O)N(C)C(=O)CN(C)C1=O [PP0540] | B (a compound having 3 or more and less than 10 is denoted as B) | 17 | B (a compound having 3 or more and less than 10 is denoted as B)
